ChEMBL document CHEMBL1139649, “Hetaryl imidazoles: a novel dual inhibitors of VEGF receptors I and II” (Bioorg Med Chem Lett, 2006)

Key:
[1] = biological target: Cyclin-dependent kinase 5 (Homo sapiens) (UniProt Q00535); test: […] against Cdk5 at 10 uM by HTRF method
[2] = biological target: Insulin-like growth factor 1 receptor (Homo sapiens) (UniProt P08069); test: […] against IGF1R at 10 uM by HTRF method
[3] = biological target: Glycogen synthase kinase-3 beta (Homo sapiens) (UniProt P49841); test: Inhibition against GSK3-beta at 10 uM by HTRF method; set-up: scale not given: the % may be the effect or the level left
[4] = biological target: Cyclin-dependent kinase 2 (Homo sapiens) (UniProt P24941); test: […] against Cdk2 at 10 uM by HTRF method
[5] = biological target: Receptor-type tyrosine-protein kinase FLT3 (Homo sapiens) (UniProt P36888); test: Inhibition of Flt3 at 10 uM by HTRF method; set-up: scale not given: the % may be the effect or the level left
[6] = Solubility in water; format: physicochemical
[7] = biological target: Hepatocyte growth factor receptor (Homo sapiens) (UniProt P08581); test: Percent inhibition against c-Met at 10 uM by HTRF method; set-up: scale not given: the % may be the effect or the level left
[8] = biological target: T1, Vascular endothelial growth factor receptor 2 (Homo sapiens, UniProt P35968); test: Inhibition of VEGFR2 in 293 adenovirus transfected kidney cells by cell-based ELISA assay
T1 sequence (P35968 whole entry): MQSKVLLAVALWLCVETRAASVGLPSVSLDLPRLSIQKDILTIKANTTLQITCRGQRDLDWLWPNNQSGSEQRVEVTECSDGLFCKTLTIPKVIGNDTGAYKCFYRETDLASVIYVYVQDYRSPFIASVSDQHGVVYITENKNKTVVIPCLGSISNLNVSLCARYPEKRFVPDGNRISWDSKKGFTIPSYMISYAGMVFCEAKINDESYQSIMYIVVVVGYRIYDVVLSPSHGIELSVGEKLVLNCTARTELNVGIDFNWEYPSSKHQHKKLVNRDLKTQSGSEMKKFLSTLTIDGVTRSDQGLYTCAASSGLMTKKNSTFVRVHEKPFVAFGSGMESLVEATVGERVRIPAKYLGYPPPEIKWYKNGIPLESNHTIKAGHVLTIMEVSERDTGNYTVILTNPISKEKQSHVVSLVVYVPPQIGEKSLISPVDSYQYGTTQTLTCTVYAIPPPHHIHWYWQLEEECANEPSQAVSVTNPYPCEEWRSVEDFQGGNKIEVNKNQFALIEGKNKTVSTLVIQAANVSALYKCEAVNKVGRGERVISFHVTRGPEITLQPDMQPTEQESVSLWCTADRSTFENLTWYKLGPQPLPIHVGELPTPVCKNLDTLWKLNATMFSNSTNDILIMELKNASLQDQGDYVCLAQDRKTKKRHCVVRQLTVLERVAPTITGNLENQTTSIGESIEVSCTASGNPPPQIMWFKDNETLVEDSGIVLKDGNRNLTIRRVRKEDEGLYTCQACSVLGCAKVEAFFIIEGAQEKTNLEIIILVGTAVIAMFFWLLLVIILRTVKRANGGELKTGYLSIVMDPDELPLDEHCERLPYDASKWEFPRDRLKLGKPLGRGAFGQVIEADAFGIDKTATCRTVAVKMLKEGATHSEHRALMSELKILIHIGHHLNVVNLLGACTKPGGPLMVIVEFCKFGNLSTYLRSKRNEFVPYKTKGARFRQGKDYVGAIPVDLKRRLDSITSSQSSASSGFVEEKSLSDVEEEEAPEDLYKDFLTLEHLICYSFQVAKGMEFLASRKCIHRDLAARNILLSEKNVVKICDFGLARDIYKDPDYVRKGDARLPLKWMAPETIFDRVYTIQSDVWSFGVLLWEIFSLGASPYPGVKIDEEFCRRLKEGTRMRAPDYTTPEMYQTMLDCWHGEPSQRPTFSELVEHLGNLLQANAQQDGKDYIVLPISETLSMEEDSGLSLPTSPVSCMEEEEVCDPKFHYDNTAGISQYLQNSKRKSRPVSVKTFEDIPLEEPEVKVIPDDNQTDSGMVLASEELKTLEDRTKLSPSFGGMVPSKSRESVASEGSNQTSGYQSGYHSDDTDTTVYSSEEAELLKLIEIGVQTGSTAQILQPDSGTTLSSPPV

[9] = biological target: RAC-alpha serine/threonine-protein kinase (Homo sapiens) (UniProt P31749); test: […] against PKB/Akt at 10 uM by HTRF method
Sequence of RAC-alpha serine/threonine-protein kinase (Homo sapiens) (P31749 whole entry, the tested form may be a part): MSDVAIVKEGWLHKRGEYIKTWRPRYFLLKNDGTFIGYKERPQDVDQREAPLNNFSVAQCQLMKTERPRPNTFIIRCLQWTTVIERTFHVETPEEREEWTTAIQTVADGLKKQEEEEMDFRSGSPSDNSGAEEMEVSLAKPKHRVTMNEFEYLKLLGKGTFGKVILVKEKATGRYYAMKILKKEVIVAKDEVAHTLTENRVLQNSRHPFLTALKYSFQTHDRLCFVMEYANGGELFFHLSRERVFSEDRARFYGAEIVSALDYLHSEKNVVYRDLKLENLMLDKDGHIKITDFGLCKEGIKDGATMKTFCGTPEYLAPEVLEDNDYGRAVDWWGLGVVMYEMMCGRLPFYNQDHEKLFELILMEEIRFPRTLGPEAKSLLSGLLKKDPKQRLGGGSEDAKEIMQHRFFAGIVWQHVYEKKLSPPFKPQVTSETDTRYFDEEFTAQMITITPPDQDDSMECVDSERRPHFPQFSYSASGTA

[10] = biological target: Bcr/Abl fusion protein (Homo sapiens) (UniProt P00519+P11274); test: Inhibition of bcr-Abl at 10 uM by HTRF method; format: protein assay; set-up: scale not given: the % may be the effect or the level left
Sequence of Bcr/Abl fusion protein (Homo sapiens) (P00519 whole entry, looked up, the tested form may be a part): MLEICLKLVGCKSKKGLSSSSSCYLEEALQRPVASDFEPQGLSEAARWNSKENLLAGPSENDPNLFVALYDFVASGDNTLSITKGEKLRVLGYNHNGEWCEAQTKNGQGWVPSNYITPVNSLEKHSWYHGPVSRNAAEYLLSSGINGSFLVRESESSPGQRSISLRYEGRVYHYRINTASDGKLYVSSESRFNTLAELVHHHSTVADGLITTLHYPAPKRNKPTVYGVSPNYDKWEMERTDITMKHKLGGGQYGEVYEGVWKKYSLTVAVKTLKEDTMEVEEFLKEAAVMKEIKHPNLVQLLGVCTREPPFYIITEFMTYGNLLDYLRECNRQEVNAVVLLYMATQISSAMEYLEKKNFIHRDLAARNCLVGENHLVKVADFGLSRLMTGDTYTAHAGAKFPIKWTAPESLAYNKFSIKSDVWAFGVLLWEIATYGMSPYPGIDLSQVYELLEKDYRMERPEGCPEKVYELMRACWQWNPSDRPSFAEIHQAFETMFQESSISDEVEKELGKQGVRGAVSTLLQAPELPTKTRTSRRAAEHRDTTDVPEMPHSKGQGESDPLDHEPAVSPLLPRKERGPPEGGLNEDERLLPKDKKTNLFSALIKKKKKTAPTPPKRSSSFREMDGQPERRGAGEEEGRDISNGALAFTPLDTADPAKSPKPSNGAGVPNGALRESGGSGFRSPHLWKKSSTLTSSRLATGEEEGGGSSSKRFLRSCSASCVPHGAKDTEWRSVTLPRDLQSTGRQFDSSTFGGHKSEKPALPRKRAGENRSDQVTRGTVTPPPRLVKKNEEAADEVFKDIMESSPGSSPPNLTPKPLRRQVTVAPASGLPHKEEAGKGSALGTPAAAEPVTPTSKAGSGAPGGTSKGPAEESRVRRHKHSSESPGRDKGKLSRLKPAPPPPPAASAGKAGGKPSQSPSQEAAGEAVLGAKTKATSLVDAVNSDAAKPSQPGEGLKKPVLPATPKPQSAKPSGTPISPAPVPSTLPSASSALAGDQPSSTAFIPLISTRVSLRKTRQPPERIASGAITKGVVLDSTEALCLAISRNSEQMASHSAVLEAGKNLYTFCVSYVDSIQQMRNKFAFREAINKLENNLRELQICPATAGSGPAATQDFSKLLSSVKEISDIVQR
Sequence of Bcr/Abl fusion protein (Homo sapiens) (P11274 whole entry, looked up, the tested form may be a part): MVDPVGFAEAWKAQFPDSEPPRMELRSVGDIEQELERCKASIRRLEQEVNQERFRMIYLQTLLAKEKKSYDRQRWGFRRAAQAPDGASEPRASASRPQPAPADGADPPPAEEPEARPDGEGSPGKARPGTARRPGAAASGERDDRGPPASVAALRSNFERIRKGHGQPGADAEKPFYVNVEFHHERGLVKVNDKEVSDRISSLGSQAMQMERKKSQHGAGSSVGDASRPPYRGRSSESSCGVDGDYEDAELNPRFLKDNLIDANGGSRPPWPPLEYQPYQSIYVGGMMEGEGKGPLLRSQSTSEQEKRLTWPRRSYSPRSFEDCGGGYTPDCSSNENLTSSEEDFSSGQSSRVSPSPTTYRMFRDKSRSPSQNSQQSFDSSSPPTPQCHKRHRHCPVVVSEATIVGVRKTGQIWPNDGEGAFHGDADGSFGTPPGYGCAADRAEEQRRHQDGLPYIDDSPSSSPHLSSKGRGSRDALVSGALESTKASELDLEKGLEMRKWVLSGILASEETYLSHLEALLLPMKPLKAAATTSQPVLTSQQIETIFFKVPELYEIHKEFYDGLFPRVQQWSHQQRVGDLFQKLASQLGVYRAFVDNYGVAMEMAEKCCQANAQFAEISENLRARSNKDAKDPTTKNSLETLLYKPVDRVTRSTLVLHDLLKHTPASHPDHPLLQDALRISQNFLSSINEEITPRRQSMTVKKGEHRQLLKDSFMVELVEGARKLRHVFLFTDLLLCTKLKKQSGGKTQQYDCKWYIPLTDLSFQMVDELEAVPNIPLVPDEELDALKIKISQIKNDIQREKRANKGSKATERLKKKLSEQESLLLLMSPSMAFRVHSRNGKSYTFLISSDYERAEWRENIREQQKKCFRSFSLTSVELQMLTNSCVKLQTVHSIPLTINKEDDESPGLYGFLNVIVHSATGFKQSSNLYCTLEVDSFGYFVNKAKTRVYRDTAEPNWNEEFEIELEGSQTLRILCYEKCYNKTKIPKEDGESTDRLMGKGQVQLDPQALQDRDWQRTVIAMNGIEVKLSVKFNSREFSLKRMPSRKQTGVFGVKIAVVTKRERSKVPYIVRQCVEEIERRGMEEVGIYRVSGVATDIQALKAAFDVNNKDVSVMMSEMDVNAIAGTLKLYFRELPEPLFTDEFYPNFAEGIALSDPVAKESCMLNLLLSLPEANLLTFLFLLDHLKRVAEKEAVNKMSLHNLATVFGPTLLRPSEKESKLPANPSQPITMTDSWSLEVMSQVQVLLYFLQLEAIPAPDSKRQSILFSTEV

[11] = biological target: Receptor tyrosine-protein kinase erbB-2 (Homo sapiens) (UniProt P04626); test: […] against ErbB2 at 10 uM by HTRF method
[12] = biological target: Vascular endothelial growth factor receptor 1 (Homo sapiens, UniProt P17948); test: Inhibition of VEGFR1 by enzymatic assay
[13] = biological target: Fibroblast growth factor receptor 1 (Homo sapiens) (UniProt P11362); test: Percent inhibition against FGFR1 at 10 uM by HTRF method; set-up: scale not given: the % may be the effect or the level left
Sequence of Fibroblast growth factor receptor 1 (Homo sapiens) (P11362 22-822 limits assumed): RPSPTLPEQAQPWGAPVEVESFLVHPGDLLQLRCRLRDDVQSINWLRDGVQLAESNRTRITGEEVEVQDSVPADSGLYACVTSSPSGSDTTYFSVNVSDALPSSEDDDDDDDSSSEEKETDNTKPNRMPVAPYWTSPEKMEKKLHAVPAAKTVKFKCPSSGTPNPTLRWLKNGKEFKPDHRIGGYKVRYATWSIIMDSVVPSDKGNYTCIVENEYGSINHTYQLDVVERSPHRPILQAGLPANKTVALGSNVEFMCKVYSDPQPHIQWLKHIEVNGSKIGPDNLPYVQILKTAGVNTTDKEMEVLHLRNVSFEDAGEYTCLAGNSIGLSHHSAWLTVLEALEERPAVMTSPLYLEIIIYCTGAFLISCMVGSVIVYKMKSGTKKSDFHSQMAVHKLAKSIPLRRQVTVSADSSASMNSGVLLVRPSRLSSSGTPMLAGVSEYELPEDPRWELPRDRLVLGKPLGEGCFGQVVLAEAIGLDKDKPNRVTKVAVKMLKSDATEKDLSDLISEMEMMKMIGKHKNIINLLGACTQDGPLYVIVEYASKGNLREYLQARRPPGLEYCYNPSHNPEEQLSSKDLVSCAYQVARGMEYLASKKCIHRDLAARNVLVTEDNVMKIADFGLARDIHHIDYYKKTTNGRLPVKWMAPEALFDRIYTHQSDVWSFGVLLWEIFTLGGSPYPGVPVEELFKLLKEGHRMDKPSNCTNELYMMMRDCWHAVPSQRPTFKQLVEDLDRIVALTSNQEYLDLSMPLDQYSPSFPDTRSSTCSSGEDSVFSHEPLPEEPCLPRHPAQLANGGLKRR

[14] = biological target: cAMP-dependent protein kinase (PKA) (Homo sapiens) (UniProt P22694+P17612+P22612); test: Inhibition against PKA at 10 uM by HTRF method; format: protein assay; set-up: scale not given: the % may be the effect or the level left
[15] = biological target: Epidermal growth factor receptor (Homo sapiens) (UniProt P00533); test: […] against ErbB1 at 10 uM by HTRF method
[16] = biological target: T1, Vascular endothelial growth factor receptor 2; test: Inhibition of VEGFR2 by enzymatic assay
[17] = biological target: T2, Ephrin type-B receptor 4 (Homo sapiens) (UniProt P54760); test: Percent inhibition against EphB4 at 10 uM by HTRF method; set-up: scale not given: the % may be the effect or the level left
T2 sequence (whole entry): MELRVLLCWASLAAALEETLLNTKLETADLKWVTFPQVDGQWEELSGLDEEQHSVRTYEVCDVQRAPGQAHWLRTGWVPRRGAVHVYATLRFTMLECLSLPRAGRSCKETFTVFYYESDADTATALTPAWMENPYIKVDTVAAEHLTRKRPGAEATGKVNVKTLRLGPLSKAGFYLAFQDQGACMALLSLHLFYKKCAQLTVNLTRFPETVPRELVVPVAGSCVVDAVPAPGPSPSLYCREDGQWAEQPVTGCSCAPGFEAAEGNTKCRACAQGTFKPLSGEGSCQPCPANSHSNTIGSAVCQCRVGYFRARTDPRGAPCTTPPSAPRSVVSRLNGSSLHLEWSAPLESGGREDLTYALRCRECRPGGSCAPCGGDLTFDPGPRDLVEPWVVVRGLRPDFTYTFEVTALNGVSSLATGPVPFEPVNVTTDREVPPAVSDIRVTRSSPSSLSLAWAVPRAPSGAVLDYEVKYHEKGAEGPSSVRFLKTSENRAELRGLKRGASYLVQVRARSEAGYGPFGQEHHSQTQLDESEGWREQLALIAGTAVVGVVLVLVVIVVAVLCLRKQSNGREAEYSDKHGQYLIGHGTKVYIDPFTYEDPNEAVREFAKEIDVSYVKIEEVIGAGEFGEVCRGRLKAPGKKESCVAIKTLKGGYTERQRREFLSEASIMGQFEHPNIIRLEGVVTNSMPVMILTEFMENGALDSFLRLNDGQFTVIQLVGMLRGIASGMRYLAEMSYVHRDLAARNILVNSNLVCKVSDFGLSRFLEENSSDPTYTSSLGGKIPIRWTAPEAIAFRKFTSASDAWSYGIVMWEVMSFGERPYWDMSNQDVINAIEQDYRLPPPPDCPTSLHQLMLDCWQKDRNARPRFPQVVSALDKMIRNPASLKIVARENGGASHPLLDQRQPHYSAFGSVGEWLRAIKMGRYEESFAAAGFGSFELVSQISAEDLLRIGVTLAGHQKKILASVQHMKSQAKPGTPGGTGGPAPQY

Compound	Activity [1] [%]	Activity [2] [%]	Activity [3] [%]	Percent inhibition [4] [%]	Activity [5] [%]	solubility [6] [mM]	Activity [7] [%]	IC50 [8] [nM]	Activity [9] [%]	Activity [10] [%]	Activity [11] [%]	IC50 [12] [nM]	Activity [13] [%]	Activity [14] [%]	Percent inhibition [15] [%]	IC50 [16] [nM]	Activity [17] [%]
COc1ccc(Nc2nnc(-c3c(NCc4ccncc4)ncn3C)o2)cc1OC	< 30	< 30	< 30	< 30	< 30	> 5	< 30	93	< 30	< 30	< 30	590	< 30	< 30	< 30	52	< 30
COc1cccc(Nc2nnc(-c3c(NCc4ccncc4)ncn3C)o2)c1	< 30	< 30	< 30	< 30	< 30	> 5	< 30	64	< 30	< 30	< 30	670	< 30	< 30	< 30	130	< 30
Cn1cnc(NCc2ccncc2)c1-c1nnc(Nc2ccc(OC(F)(F)Cl)cc2)o1	< 30	< 30	< 30	< 30	< 30	> 5	< 30	96	< 30	< 30	< 30	460	< 30	< 30	< 30	130	< 30
Cn1cnc(NCc2ccncc2)c1-c1nnc(Nc2ccc(OC(F)(F)F)cc2)o1	< 30	< 30	< 30	< 30	< 30	> 5	< 30	66	< 30	< 30	< 30	160	< 30	< 30	< 30	93	< 30
Cn1cnc(NCc2ccncc2)c1-c1nnc(Nc2ccc(C(F)(F)F)cc2)o1	< 30	< 30	< 30	< 30	< 30	> 5	< 30	82	< 30	< 30	< 30	120	< 30	< 30	< 30	73	< 30
